Assay results reported in patent US20020127287A1, “Treatment of lyso paf-mediated disorders with lyso paf or paf antagonists and procedure for determining their efficacy” (priority 1990, published 2002).
Values joined by “and” are separate entries in the source; they are usually repeats but may differ in a detail not shown here. Equal values may be shown once.

Experiments:
[1] = molecular target: T1, paf receptors on neutrophils (PMN) (Homo sapiens, UniProt P25105); test: [^3H]paf binding to intact human neutrophils (PMN)
T1 construct: Neutrophils (PMN) were prepared from venous blood (40 ml) from normal donors; endogenous in cells; host or cells: intact neutrophils (PMN) from venous blood of normal donors
Procedure: Neutrophils (PMN) were prepared from venous blood (40 ml) from normal donors, anticoagulated with citric acid dextrose (7:1, v/v) was sedimented for 30 to 45 min in gelatin 0.3% final (Plasmagel®). Twenty ml of supernatant were layered on 10 ml Ficoll Hypaque (d=1.077) and centrifuged (400×g, 20 min, 20° C.). The cell pellet containing PMN (95%) was resuspended in 500 μl Tyrode's buffer (pH=7.4). Erythrocyte lysis was performed by adding 3 volumes of distilled water for 40 sec. followed by 1 volume NaCl (3.5%, w/v). PMN were then washed twice in Tyrode's buffer (centrifugation at 370×g at 20° C. for 10 min). Cell concentration was adjusted to 5×10^7 per ml.
(§1) Binding studies were performed using, for example, intact neutrophils (PMN) or intact human blood eosinophils. PMN (2.5×10^6) or eosinophils (2.5×10^5) were suspended in 500 μl Tyrode's buffer supplemented with 1.3 mM CaCl2, 1 mM MgCl2 and 0.25% (v/v) fatty acid-free bovine serum albumin (BSA, w/v) were incubated with [^3H]paf (0.325-6.5 nM) either for 30 min at 20° C. or for 20 hrs at 4° C. Non-specific binding was assessed with the unlabeled ligands either paf (500 nM) or the receptor antagonist WEB 2086 (1 μM or 400 nM).
In a second set of experiments, [^3H]paf binding was performed by adding 3.25 nM [^3H]paf to PMN, simultaneously with low dose (5 to 50 nM) of paf, lyso paf, the enantiomer of paf or 2-lyso phosphatidylcholine (LPC) for 30 min at 20° C. [^3H]paf binding was also measured in the presence of the phorbol ester 4-phorbol-12-myristate-13-acetate (PMA, 1 to 16 nM) either added simultaneously with [^3H]paf or preincubated 15 min at 37° C. previously. […] After the binding procedure, cells were separated from their suspending medium by filtration in a millipore vacuum system with GF/C filters. Filters were washed with 10 ml Tyrode's buffer at 4° C. and radioactivity was assessed by scintillation. Cell-bound radioactivity on the filters after subtraction of blanks (filter-bound radioactivity in the absence of cells) was expressed in fmol [^3H]paf bound per 2.5×10^6 PMN or 2.5×10^5 eosinophils.

[2] = molecular target: T2, paf receptors on eosinophils (Homo sapiens, UniProt P25105); test: [^3H]paf binding to intact human eosinophils
T2 construct: endogenous in cells; host or cells: intact human blood eosinophils (about 96% pure)
Procedure: Eosinophils were also prepared under sterile conditions. Blood (400 ml) was mixed with 10% (v/v) dextran. The supernatant was carefully deposited on a metrizoate/ficoll suspension (d=1.148) after sedimentation of red blood cells and centrifuged (400×g: 40 min). Erythrocyte lysis was performed by adding 3 v. of distilled water for 40 sec, followed by 1 v. NaCl (3.5%, w/v). Cells were suspended in 500 μl pH 7.4 Tyrode's buffer, centrifuged (1900 rpm×10 min) and resuspended (5×10^6 cells/ml) in Tyrode's (0.25% BSA) without Ca^2+. The eosinophils fraction at 1×10^6 cells/ml contained 96±5% eosinophils, 3±3% neutrophils, 1±2% mononuclear cells and no free platelets (mean±s.d., n=3).
as §1
Eosinophils were added to Tyrode's (0.25% BSA, 1.3 mM CaCl2, 1 mM MgCl2) containing [3H]paf (0.325-6.5 nM) in the absence or presence of unlabeled paf, lyso paf, enantio-paf or lyso-phosphatidylcholine (LPC) (5, 10, 50, 500 nM) and/or the specific paf receptor antagonist WEB 2086 (400 nM). After the binding procedure, cells were separated from their suspending medium by filtration in a millipore vacuum system with GF/C filters. Filters were washed with 10 ml Tyrode's buffer at 4° C. and radioactivity was assessed by scintillation. Cell-bound radioactivity on the filters after subtraction of blanks (filter-bound radioactivity in the absence of cells) was expressed in fmol [^3H]paf bound per 2.5×10^6 PMN or 2.5×10^5 eosinophils.

[3] = tested on: endothelial cell; test: [^3H]paf binding to endothelial cells
[4] = tested on: acetylhydrolase; test: acetylhydrolase activity, kinetic constants; assay type: biochemical, human; conditions: excess AAGPC
Procedure: Acetylhydrolase activity was measured in lysates of resting platelets or platelets stimulated with thrombin (0.5 IU/ml, 1 min, 37° C.), in supernatants of thrombin-activated platelets with or without acid-treated (inactivation of acetylhydrolase) plasma and in native plasma. Samples were incubated for 10 min at 37° C. in the presence of 0.1 μCi [^3H]acetyl paf and concentrations of unlabeled paf varying from 5 to 35 μM. The microenvironment modulates the acetylhydrolase indicating the origin of plasma acetylhydrolase from activated platelets.

[5] = tested on: human platelets; test: acetylhydrolase release from activated platelets; assay type: cell-based; conditions: Thrombin 0.5 IU/ml; for acetylhydrolase release: Paf 500 nM
Procedure: Results are expressed as mean±S.D. or S.E. and statistics were performed using the “Mann Whitney” test (n=3, n=5 or n=6 as indicated).

T1 sequence (P25105 whole entry): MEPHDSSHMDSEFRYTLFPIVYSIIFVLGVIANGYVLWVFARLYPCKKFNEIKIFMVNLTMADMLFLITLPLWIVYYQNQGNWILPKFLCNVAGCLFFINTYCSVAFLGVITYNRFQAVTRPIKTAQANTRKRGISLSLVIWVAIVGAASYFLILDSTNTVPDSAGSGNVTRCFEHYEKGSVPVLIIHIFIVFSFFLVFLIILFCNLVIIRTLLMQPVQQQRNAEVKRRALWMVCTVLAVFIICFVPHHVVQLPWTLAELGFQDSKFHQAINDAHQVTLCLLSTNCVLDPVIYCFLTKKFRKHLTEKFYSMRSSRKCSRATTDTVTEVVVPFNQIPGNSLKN
T2 sequence (P25105 whole entry): as above

## 2-lyso phosphocholine [LPC]
[1]; Add. 5 nM, [^3H]paf […], 20° C., 30 min, WEB 2086 1 μM
  [^3H]paf binding: 322 ± 22 fmol [^3H]paf bound per 2.5×10^6 PMN
[2]
  interference with [3H]paf binding: did not interfere

## CCCCCCCCCCCCCCCCCCNC(=O)OCC(COP(=O)([O-])OCC[n+]1ccsc1)OC (racemic) [CV 3988, rac-3-(N-n-octadecylcarbamoyloxy)-2-methoxypropyl 2-tiazolioethyl phosphate]
[3]
  increased phospholipid binding (lysine aspirin) antagonized: antagonized

## CCCCCCCCCCCCCCCCOCC(COP(=O)([O-])OCC[N+](C)(C)C)OC(=O)CCCCCCCCCCCCCCC (stereo not drawn) [AAGPC, 1-O-hexadecyl-2-palmitoyl-GPC]
[4]
  inhibition of acetylhydrolase activity: not inhibited

## COc1ccc(SCC(=S)N2CCc3c(sc4c3C(c3ccccc3Cl)=NCc3nnc(C)n3-4)C2)cc1OC [BN 50 739]
[3]; 20 μM
  inhibited endothelial cell bound [^3H]paf: 5.8 fmol

## CC(=O)Oc1ccccc1C(=O)O.NCCCCC(N)C(=O)O [Lysine aspirin]
[3]
  endothelial cell bound [^3H]paf, % of the total binding: 177% and 198%

## CCCCCCCCCCCCCC(=O)O[C@@H]1[C@@H](C)[C@@]2(O)[C@@H](C=C(CO)C[C@]3(O)C(=O)C(C)=C[C@@H]23)[C@@H]2C(C)(C)[C@]12OC(C)=O [PMA, phorbol-12-myristate-13-acetate]
[1]; PMA 1 nM, preincubation 0 min at 37° C.
  [^3H]paf binding: 385 fmol [^3H]paf bound per 2.5×10^6 PMN
[1]; PMA 1 nM, preincubation 15 min at 37° C.
  [^3H]paf binding: 413 fmol [^3H]paf bound per 2.5×10^6 PMN
[1]; PMA 16 nM, preincubation 0 min at 37° C.
  [^3H]paf binding: 219 fmol [^3H]paf bound per 2.5×10^6 PMN
[1]; PMA 16 nM, preincubation 15 min at 37° C.
  [^3H]paf binding: 171 fmol [^3H]paf bound per 2.5×10^6 PMN

## CCCCCCCCCCCCCCCCCCOC[C@H](COP(=O)([O-])OCC[N+](C)(C)C)OC(C)=O [[^3H]paf] [1-O-[^3H]-octadecyl-2-acetyl-sn-glycero-3-phosphocholine]
[1]; 4° C.
  Kd: 0.44 nM
  total binding of [^3H]paf: 157.0±27.4 fmol per 2.5×10^6 cells
[1]; 20° C.
  total binding of [^3H]paf: 310.5±13.0 fmol per 2.5×10^6 cells
[2]
  binding sites per eosinophil: 85×10^3 sites per eosinophil
[2]; 20 hrs at 4° C.
  Bmax: 35.4 fmol per 2.5×10^5 cells
[2]; 20 hrs at 4° C., read-out: binding affinity (Kd) on eosinophils
  Kd: 5.5 nM

## Thrombin
[5]; paf 500 nM, mean±S.E., n=3
  released of the total acetylhydrolase: 17.2±3.1%
[5]; stimulation 0 sec
  acetylhydrolase release: 2.2 ± 0.9 percentage of the total content of acetylhydrolase
[5]; stimulation 15 sec
  acetylhydrolase release: 8.5 ± 0.7 percentage of the total content of acetylhydrolase
[5]; stimulation 30 sec
  acetylhydrolase release: 13.1 ± 3.9 percentage of the total content of acetylhydrolase
[5]; stimulation 60 sec
  acetylhydrolase release: 12.8 ± 5.1 percentage of the total content of acetylhydrolase
[5]; stimulation 120 sec
  acetylhydrolase release: 10.9 ± 3.1 percentage of the total content of acetylhydrolase
[5]; stimulation 180 sec
  acetylhydrolase release: 17.9 ± 2.6 percentage of the total content of acetylhydrolase
[5]; stimulation 300 sec
  acetylhydrolase release: 17.2 ± 3.1 percentage of the total content of acetylhydrolase
